# Measured values taken from paper PMC4791286, “Puquitinib mesylate, an inhibitor of phosphatidylinositol 3-kinase p110δ, for treating relapsed or refractory non-Hodgkin's lymphoma” (Oncotarget, 2015).
# Counter-ions that a name gives are not always drawn. Like-named read-outs stand apart in the source and are kept apart here.
# Columns and labels:
# [1] = Phase I study, pharmacokinetics of XC-302 in patients; format: in vivo, human
# Procedure: Detailed pharmacokinetic were analyzed by taking blood samples before (within 1 hour) and after (every 2 hours) dosing on days 1, 28 of cycle 1. Plasma concentrations of XC-302 were measured with a validated liquid chromatography assay. Pharmacokinetic measures, such as the maximum plasma concentration (Cmax) and area under the time-concentration curve (AUC), were estimated in every patient.
# [2] = tested on: PI3K p110γ; set-up: method as in earlier work; settings: ref unpublished information, personal communication with Wei Mao on January 1, 2013; read-out: IC50 against PI3K isoform p110γ; cited from earlier work
# [3] = tested on: AKT phosphorylation mediated by EGFR; set-up: method as in earlier work; settings: ref unpublished information, personal communication with Wei Mao on January 1, 2013; cited from earlier work
# [4] = tested on: KDR; set-up: method as in earlier work; settings: ref unpublished information, personal communication with Wei Mao on January 1, 2013; read-out: IC50, receptor tyrosine kinase KDR; cited from earlier work
# [5] = tested on: PDGFR β; set-up: method as in earlier work; settings: ref unpublished information, personal communication with Wei Mao on January 1, 2013; read-out: IC50, receptor tyrosine kinase PDGFR β; cited from earlier work
# [6] = tested on: vascular endothelial cells lumen; set-up: method as in earlier work; settings: ref unpublished information, personal communication with Wei Mao on January 1, 2013; read-out: IC50, formation of the vascular endothelial cells lumen; cited from earlier work
# [7] = tested on: xenografts with cancer of the colon, stomach, or lung; set-up: method as in earlier work; settings: nude mice, ref unpublished information, personal communication with Wei Mao on January 1, 2013; cited from earlier work
# [8] = set-up: method as in earlier work; settings: pre-clinical; ref unpublished information, personal communication with Wei Mao on January 1, 2013; cited from earlier work
# [9] = set-up: method as in earlier work; settings: toxicology experiments; ref unpublished information, personal communication with Wei Mao on January 1, 2013; cited from earlier work
# [10] = tested on: CYP1A2 enzyme; settings: preliminary study; cited from earlier work
# [11] = tested on: cell lines with drug resistance mediated by p170/MDR-1 / p-Glycoprotein; set-up: method as in earlier work; settings: p170/MDR-1 / p-Glycoprotein mediated resistance; ref unpublished information, personal communication with Wei Mao on January 1, 2013; cited from earlier work
# [12] = tested on: PI3K p110α; settings: read-out: IC50 against PI3K isoform p110α; ref unpublished information, personal communication with Wei Mao on January 1, 2013; cited from earlier work
# [13] = tested on: PI3K p110β; settings: read-out: IC50 against PI3K isoform p110β; ref unpublished information, personal communication with Wei Mao on January 1, 2013; cited from earlier work
# [14] = tested on: PI3K p110δ; settings: read-out: IC50 against PI3K isoform p110δ; ref unpublished information, personal communication with Wei Mao on January 1, 2013; cited from earlier work
smiles,measurement,setting,value
"c1cnc2ccc(Nc3nc(NC4CC4)c4nc[nH]c4n3)cc2c1 [XC-302, Puquitinib Mesylate]",Pharmacokinetic response (AUClast and Cmax vs dose),"[1]; 25 mg to 50 mg, days 1 and 28",linear
same,Tmax,"[1]; human, serum, oral, 25 to 50 mg BID, patients, read-out: Time of peak serum concentration after administration",~4 h
same,"ALT, increased, adverse event, any grade","25 mg BID, n = 3",2 n
same,"Anemia, adverse event, any grade","25 mg BID, n = 3",1 n
same,"Creatinine, increased, adverse event, any grade","25 mg BID, n = 3",1 n
same,"Fecal occult blood, adverse event, any grade","25 mg BID, n = 3",1 n
same,"Hematuresis, adverse event, any grade","25 mg BID, n = 3",1 n
same,"Leukopenia, adverse event, any grade","25 mg BID, n = 3",1 n
same,"Thrombocytopenia, adverse event, any grade","25 mg BID, n = 3",1 n
same,"ALT, increased, adverse event, any grade","37.5 mg BID, n = 9",5 n
same,"AST, increased, adverse event, any grade","37.5 mg BID, n = 9",1 n
same,"Anemia, adverse event, any grade","37.5 mg BID, n = 9",4 n
same,"Anemia, adverse event, grade ≥3","37.5 mg BID, n = 9",1 n
same,"Constipation, adverse event, any grade","37.5 mg BID, n = 9",1 n
same,"Fecal occult blood, adverse event, any grade","37.5 mg BID, n = 9",2 n
same,"Hematuresis, adverse event, any grade","37.5 mg BID, n = 9",1 n
same,"Leukopenia, adverse event, any grade","37.5 mg BID, n = 9",1 n
same,"Nausea, adverse event, any grade","37.5 mg BID, n = 9",1 n
same,"Neutropenia, adverse event, any grade","37.5 mg BID, n = 9",2 n
same,"Proteinuria, adverse event, any grade","37.5 mg BID, n = 9",1 n
same,"Pyrexia, adverse event, any grade","37.5 mg BID, n = 9",2 n
same,"S-T-segment change, adverse event, any grade","37.5 mg BID, n = 9",1 n
same,"Thrombocytopenia, adverse event, any grade","37.5 mg BID, n = 9",2 n
same,"Thrombocytopenia, adverse event, grade ≥3","37.5 mg BID, n = 9",1 n
same,"URI, adverse event, any grade","37.5 mg BID, n = 9",2 n
same,Patients with dose-limiting toxicity (grade 3 transaminases elevation),50 mg BID group,Four
same,"ALT, increased, adverse event, any grade","50 mg BID, n = 9",7 n
same,"ALT, increased, adverse event, grade ≥3","50 mg BID, n = 9",4 n
same,"AST, increased, adverse event, any grade","50 mg BID, n = 9",6 n
same,"AST, increased, adverse event, grade ≥3","50 mg BID, n = 9",1 n
same,"Anemia, adverse event, any grade","50 mg BID, n = 9",2 n
same,"Arrhythmia, adverse event, any grade","50 mg BID, n = 9",1 n
same,"Constipation, adverse event, any grade","50 mg BID, n = 9",1 n
same,"Creatinine, increased, adverse event, any grade","50 mg BID, n = 9",1 n
same,"Diarrhea, adverse event, any grade","50 mg BID, n = 9",2 n
same,"Fecal occult blood, adverse event, any grade","50 mg BID, n = 9",1 n
same,"Hematuresis, adverse event, any grade","50 mg BID, n = 9",1 n
same,"Leukopenia, adverse event, any grade","50 mg BID, n = 9",2 n
same,"Nausea, adverse event, any grade","50 mg BID, n = 9",1 n
same,"Neutropenia, adverse event, any grade","50 mg BID, n = 9",3 n
same,"Neutropenia, adverse event, grade ≥3","50 mg BID, n = 9",2 n
same,"Peripheral nerve toxicity, adverse event, any grade","50 mg BID, n = 9",1 n
same,"Pyrexia, adverse event, any grade","50 mg BID, n = 9",2 n
same,"Rash, adverse event, any grade","50 mg BID, n = 9",2 n
same,"S-T-segment change, adverse event, any grade","50 mg BID, n = 9",1 n
same,"Thrombocytopenia, adverse event, any grade","50 mg BID, n = 9",1 n
same,"Thrombocytopenia, adverse event, grade ≥3","50 mg BID, n = 9",1 n
same,"URI, adverse event, any grade","50 mg BID, n = 9",2 n
same,DLT events,25-mg or 37.5-mg doses,No DLT events
same,"ALT, increased, adverse event, any grade",Overall,14 n
same,"ALT, increased, adverse event, grade ≥3",Overall,4 n
same,"AST, increased, adverse event, any grade",Overall,7 n
same,"AST, increased, adverse event, grade ≥3",Overall,1 n
same,"Anemia, adverse event, any grade",Overall,7 n
same,"Arrhythmia, adverse event, any grade",Overall,1 n
same,"Constipation, adverse event, any grade",Overall,2 n
same,"Creatinine, increased, adverse event, any grade",Overall,2 n
same,"Diarrhea, adverse event, any grade",Overall,2 n
same,"Fecal occult blood, adverse event, any grade",Overall,4 n
same,"Hematuresis, adverse event, any grade",Overall,3 n
same,"Leukopenia, adverse event, any grade",Overall,4 n
same,"Nausea, adverse event, any grade",Overall,2 n
same,"Neutropenia, adverse event, any grade",Overall,5 n
same,"Neutropenia, adverse event, grade ≥3",Overall,2 n
same,"Peripheral nerve toxicity, adverse event, any grade",Overall,1 n
same,"Proteinuria, adverse event, any grade",Overall,1 n
same,"Pyrexia, adverse event, any grade",Overall,4 n
same,"Rash, adverse event, any grade",Overall,2 n
same,"S-T-segment change, adverse event, any grade",Overall,2 n
same,"Thrombocytopenia, adverse event, any grade",Overall,4 n
same,"Thrombocytopenia, adverse event, grade ≥3",Overall,2 n
same,"URI, adverse event, any grade",Overall,4 n
same,"Anemia, frequency of AE",all 21 patients,33.3%
same,"Creatinine elevation, frequency of AE",all 21 patients,9.5%
same,"Elevated alanine transaminase (ALT), frequency of AE",all 21 patients,66.7%
same,"Elevated aspartate transaminase (AST), frequency of AE",all 21 patients,33.3%
same,"Fecal occult blood, frequency of AE",all 21 patients,19.0%
same,"Hematuresis, frequency of AE",all 21 patients,14.3%
same,"Myocardial ischemia, frequency of AE",all 21 patients,9.5%
same,"Neutropenia, frequency of AE",all 21 patients,23.8%
same,"Rash, frequency of AE",all 21 patients,9.5%
same,"Thrombocytopenia, frequency of AE",all 21 patients,19.0%
same,"Upper respiratory infection (URI), frequency of AE",all 21 patients,19.0%
same,Drug-related hyperglycemia,all patients,no XC302-related hyperglycemia
same,Maximum tolerated dose (MTD),"twice a day, 28-day cycle, NHL patients",50 mg
same,IC50,[2],89.7 nM
same,IC50,[3],100 nM
same,IC50,[4],1000 nM
same,IC50,[5],1000 nM
same,IC50,[6],100 nM
same,Anti-tumor efficacy in xenografts,[7],obvious anti-tumor efficacy
same,Absolute bioavailability,[8],high absolute bioavailability
same,Absorption,[8],rapidly absorbed
same,Toxicity,[9],low toxicity
same,Inhibition of CYP1A2 enzyme activity,[10],irreversibly inhibited
same,Sensitivity of drug-resistant cell lines,[11],similarly sensitive
same,IC50,[12],767 nM
same,IC50,[13],699 nM
same,IC50,[14],2.8 nM
